This is an account of results in patent US5385894A, “Disubstituted 6-aminoquinazolinones” (Merck & Co., Inc., priority 1994, dated 1995).

One series relates to rats pretreated with scopolamine.
Assay: not given
To be noted: cited from earlier work.
As for `CNC(=O)Oc1ccc2c(c1)[C@]1(C)CCN(C)[C@@H]1N2C` [physostigmine], the “activity in rat passive avoidance assay” value is reported as “active”.

A further series relates to male Sprague-Dawley rats.
Assay: not given
The note with it: rat; cited from earlier work.
For `CN1C(=O)CN=C(c2ccccc2)c2cc(Cl)ccc21` [Diazepam], the “activity in CER assay” value is “active”.

Test system in a further series: not listed separately
Kind of series: log P (Table 1).
Conditions: not given
In kind it is physicochemical.
`CCCc1nc2ccc(N(Cc3ccccc3)C(=O)c3ccccn3)cc2c(=O)n1Cc1ccc(-c2ccccc2-c2nn[nH]n2)cc1` [Example 136] returned a logP of 3.8.

On to `CCCc1nc2ccc(N(Cc3ccccn3)C(=O)c3ccccc3)cc2c(=O)n1Cc1ccc(-c2ccccc2-c2nn[nH]n2)cc1` [Example 137], for which the logP turned out to be 3.4.

Compound `CCCc1nc2ccc(N(Cc3ccncc3)C(=O)c3ccccc3)cc2c(=O)n1Cc1ccc(-c2ccccc2-c2nn[nH]n2)cc1` [Example 138] gave a log partition coefficient (logP) of 3.4.

Take `CCCc1nc2ccc(N(Cc3ccccc3)C(=O)c3ccncc3)cc2c(=O)n1Cc1ccc(-c2ccccc2-c2nn[nH]n2)cc1` [Example 139]: the logP is 3.7.

For the compound `CCCc1nc2ccc(N(Cc3ccccc3)C(=O)c3ccccn3)cc2c(=O)n1Cc1ccc(-c2ccccc2-c2nn[nH]n2)cc1` [Example 140], the “log P” value stood at 3.7.

`CCCCN(C(=O)c1ccc(O)cc1)c1ccc2nc(CCC)n(Cc3ccc(-c4ccccc4-c4nn[nH]n4)cc3)c(=O)c2c1` [Example 144] showed a lipophilicity (logP) of 4.2.

Consider `CCCc1nc2ccc(N(Cc3ccccn3)C(=O)c3ccncc3)cc2c(=O)n1Cc1ccc(-c2ccccc2-c2nn[nH]n2)cc1` [Example 145], for which the log partition coefficient (logP) came to 2.7.

Consider `CCCCCN(C(=O)c1ccc(OP(=O)(O)O)cc1)c1ccc2nc(CCC)n(Cc3ccc(-c4ccccc4-c4nn[nH]n4)cc3)c(=O)c2c1` [Example 146], for which the logP was 3.4.

In turn, `CCCc1nc2ccc(N(Cc3ccccc3)C(=O)c3ccc(O)cc3)cc2c(=O)n1Cc1ccc(-c2ccccc2-c2nn[nH]n2)cc1` [Example 147] showed a logP of 4.

`CCCc1nc2ccc(N(Cc3ccccn3)C(=O)c3ccco3)cc2c(=O)n1Cc1ccc(-c2ccccc2-c2nn[nH]n2)cc1` [Example 148] registered a logP of 3.2.

Consider `CCCOC(=O)N(Cc1ccncc1)c1ccc2nc(CCC)n(Cc3ccc(-c4ccccc4-c4nn[nH]n4)cc3)c(=O)c2c1` [Example 156], for which the log partition coefficient (logP) was 3.8.

Compound `CCCOC(=O)N(Cc1cccnc1)c1ccc2nc(CCC)n(Cc3ccc(-c4ccccc4-c4nn[nH]n4)cc3)c(=O)c2c1` [Example 158] displayed a lipophilicity (logP) of 3.8.

`CCCOC(=O)N(Cc1ccccn1)c1ccc2nc(CCC)n(Cc3ccc(-c4ccccc4-c4nn[nH]n4)cc3)c(=O)c2c1` [Example 159] displayed a logP of 3.9.

`CCCc1nc2ccc(N(Cc3ccncc3)C(=O)OCCOC)cc2c(=O)n1Cc1ccc(-c2ccccc2-c2nn[nH]n2)cc1` [Example 160] registered a lipophilicity (logP) of 2.7.

The compound `COCc1nc2ccc(N(C)C(=O)OCC(C)C)cc2c(=O)n1Cc1ccc(-c2ccccc2-c2nn[nH]n2)cc1` [Example 161] returned a log partition coefficient (logP) of 3.7.

As to `CCCOC(=O)N(Cc1ccccn1)c1ccc2nc(COC)n(Cc3ccc(-c4ccccc4-c4nn[nH]n4)cc3)c(=O)c2c1` [Example 162], the logP came to 3.3.

Take `CCCc1nc2ccc(N(Cc3ccccn3)C(=O)OCC)cc2c(=O)n1Cc1ccc(-c2ccccc2-c2nn[nH]n2)cc1` [Example 164]: the lipophilicity (logP) is 3.5.

`CCCOC(=O)N(Cc1ccc(N)cc1)c1ccc2nc(CCC)n(Cc3ccc(-c4ccccc4-c4nn[nH]n4)cc3)c(=O)c2c1` [Example 166] registered a logP of 3.9.

On to `CCCc1nc2ccc(N(Cc3ccc(F)cc3)C(=O)N(C)C(C)C)cc2c(=O)n1Cc1ccc(-c2ccccc2-c2nn[nH]n2)cc1` [Example 174], for which the logP is 4.8.

In the case of `CCCc1nc2ccc(N(Cc3ccccn3)C(=O)N(C)C(C)C)cc2c(=O)n1Cc1ccc(-c2ccccc2-c2nn[nH]n2)cc1` [Example 175], the logP is 3.7.

Compound `CCCc1nc2ccc(N(Cc3ccccc3)C(=O)c3ccccc3Oc3ccccc3)cc2c(=O)n1Cc1ccc(-c2ccccc2-c2nn[nH]n2)cc1` [Example 178] registered a logP of 4.2.

`CCCc1nc2ccc(N(Cc3ccc(O)cc3)C(=O)c3ccccc3)cc2c(=O)n1Cc1ccc(-c2ccccc2-c2nn[nH]n2)cc1` [Example 179] registered a logP of 3.6.

Take `CCCc1nc2ccc(N(Cc3ccccc3)C(=O)c3ccc(C(=O)O)cc3)cc2c(=O)n1Cc1ccc(-c2ccccc2-c2nn[nH]n2)cc1` [Example 180]: the logP worked out at 2.9.

Consider `CCCc1nc2ccc(N(Cc3cccnc3)C(=O)c3ccc(O)cc3)cc2c(=O)n1Cc1ccc(-c2ccccc2-c2nn[nH]n2)cc1` [Example 181], for which the logP was found to be 2.8.

`CCCc1nc2ccc(N(Cc3ccc(C(=O)O)cc3)C(=O)c3ccccc3)cc2c(=O)n1Cc1ccc(-c2ccccc2-c2nn[nH]n2)cc1` [Example 182] showed a logP of 2.4.

Consider `CCCc1nc2ccc(N(Cc3ccc(C(=O)OC)cc3)C(=O)c3ccccc3)cc2c(=O)n1Cc1ccc(-c2ccccc2-c2nn[nH]n2)cc1` [Example 183], for which the logP was 4.4.

In general, logP refers to the decadic logarithm of the partition coefficient of the neutral form, usually between octanol and water. Higher therefore signals higher lipophilicity. As a reminder, the log P is the decadic logarithm of the partition coefficient of the neutral form, usually between octanol and water.
